# Key:
# PAR2 [1] = target: T1, PAR2 (Homo sapiens, UniProt P55085); assay: Intracellular calcium concentration measurement (trypsin-induced calcium elevation, FDSS6000); assay type: cell-based; conditions: HEK293 cells, trypsin 5 U/mL as agonist, test compound added 30 min before measurement; read-out: Inhibitory activity on intracellular calcium elevation (IC50 (nM))
# T1 construct: Human embryonic kidney cell line HEK293 cells cultured using DMEM culture medium; endogenous in cells; host or cells: HEK293
# T1 sequence (P55085 26-397): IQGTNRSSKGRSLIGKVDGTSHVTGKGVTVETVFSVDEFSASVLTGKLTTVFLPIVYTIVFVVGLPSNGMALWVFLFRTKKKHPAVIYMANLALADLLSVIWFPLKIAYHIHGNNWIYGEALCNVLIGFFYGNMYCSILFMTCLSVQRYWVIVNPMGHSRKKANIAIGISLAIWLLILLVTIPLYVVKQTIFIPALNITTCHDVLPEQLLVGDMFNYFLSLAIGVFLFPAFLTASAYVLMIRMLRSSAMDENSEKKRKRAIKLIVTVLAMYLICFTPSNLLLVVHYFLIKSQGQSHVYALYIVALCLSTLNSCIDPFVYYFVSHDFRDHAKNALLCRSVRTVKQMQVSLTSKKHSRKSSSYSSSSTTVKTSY
# Method in brief: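 HEK293 cells grown overnight in 3% FBS on collagen-coated plates were loaded for 1 h with FLIPR calcium dye in Hanks–20 mM HEPES, pH 7.4. The calcium fluorescence change was recorded on FDSS6000 for 120 s at 37 °C.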
# PAR2 [2] = target: T2, PAR2 (Mus musculus, UniProt P55086); assay: Measurement of PAR2 agonist (SLIGRL-NH2)-induced salivation in mouse; assay type: in vivo; conditions: C57BL/6J male mice, 0.3 mg/mL solution 10 mL/kg orally, 60 min before SLIGRL-NH2 i.p., saliva collected 10 min
# T2 construct: orally administered to C57BL/6J male mice (Charles River), 6-10 weeks of age; tissue Charles River; host or cells: Living C57BL/6J male mice (in vivo; saliva secretion)
# T2 sequence (P55086 26-399): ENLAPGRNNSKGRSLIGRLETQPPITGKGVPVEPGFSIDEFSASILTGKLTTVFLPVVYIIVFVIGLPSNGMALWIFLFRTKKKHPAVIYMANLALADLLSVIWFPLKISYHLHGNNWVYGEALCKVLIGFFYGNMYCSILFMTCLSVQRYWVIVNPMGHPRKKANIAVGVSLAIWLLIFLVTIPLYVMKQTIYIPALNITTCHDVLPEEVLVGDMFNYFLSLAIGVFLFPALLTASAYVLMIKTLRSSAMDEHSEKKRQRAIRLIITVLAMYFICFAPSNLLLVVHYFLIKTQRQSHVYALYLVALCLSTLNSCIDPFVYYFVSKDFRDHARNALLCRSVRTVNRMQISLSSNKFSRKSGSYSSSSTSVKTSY
IC50 (PAR2 [1]) [nM],Inhibitory activity on the PAR2-dependent saliva secretion (%) (PAR2 [2]),Compound
8.27,95.9,"C[C@@H](c1ccccc1)N(C)c1cc(-c2cc(F)c(F)c(F)c2)nc2cc(C(=O)N3CCC(CC(=O)O)CC3)nn12 [Reference Example 1, (S)-2-(1-(7-(methyl(1-phenylethyl)amino)-5-(3,4,5-trifluorophenyl)pyrazolo[1,5-a]pyrimidine-2-carbonyl)piperidin-4-yl)acetic acid, reference compound]"
3.46,92.2,"CO[C@H]1CN(C(=O)c2cc3nc(-c4cc(F)c(Cl)c(F)c4)cc(N(C)c4c(C)cccc4F)n3n2)CC[C@H]1CC(=O)O [Example 10, 2-((3R,4S)-1-(5-(4-chloro-3,5-difluorophenyl)-7-((2-fluoro-6-methylphenyl)(methyl)amino)pyrazolo[1,5-a]pyrimidine-2-carbonyl)-3-methoxypiperidin-4-yl)acetic acid]"

# From US10227349B2, “Pyrazolo[1,5-a]pyrimidine compound” (Eisai R&D Management Co., Ltd., priority 2016, dated 2019)
